Assay results from patent US20240360094A1, “COMPOUND FOR TREATING DISEASES RELATED TO CEREBRAL ISCHEMIC INJURY” (JIANGSU CHIA TAI FENGHAI PHARMACEUTICAL CO., LTD., priority 2021, published 2024).
Like-named read-outs stand apart in the source and are kept apart here. Marks after values point to notes of the source that are not given here.

Legend:
[1] = Pharmacokinetic test in rats; format: in vivo, rat; settings: male SD rats
Procedure: Male SD rats (weighing 180-260 g) were administered with compound (I) at a dose of 1.0 mg/kg by tail vein injection and at a dose of 10.0 mg/kg orally. Each group consisted of 3 animals. The solvent for administration was a solution of 5% DMSO+5% polyethoxylated castor oil (Cremophor EL) in normal saline. The rats were fasted for about 12 h before administration and were given ad libitum access to food 4 h after administration, and water was available all the time. Blood was collected from the orbit at about 0.2 mL before administration and 5 min, 15 min, 30 min, 1 h, 2 h, 4 h, 6 h, 8 h, and 24 h after administration. The samples were placed in EDTA-K2 anticoagulant EP tubes in an ice bath, and subjected to low-speed centrifugation at 4° C. and 3500 rpm for 10 min to isolate plasma, which was then stored at −20° C. before analysis. The concentration of compound (I) in the plasma was quantified by liquid chromatography-tandem mass spectrometry (LC-MS/MS). Pharmacokinetic parameters were calculated from the analysis results of the samples using WinNonlin software.

[2] = Distribution in brain tissues of rats (plasma and brain concentration); format: in vivo; settings: rat, po, male SD rats, 20 mg/kg p.o.
Procedure: Plasma and brain tissue samples were collected from the animals at 0.5 h, 1 h, 4 h, and 24 h after administration. Collection of plasma: 0.2 mL of whole blood was collected by using an EP tube containing EDTA-K2 and centrifuged at 3500 g for 10 min, and then the upper plasma was collected and stored at −20° C. Collection of brain tissue: after the animals were euthanized, a proper amount of brain tissues were weighed out and homogenized with methanol in water (80%, w/v) at a ratio of 1:4. The concentration of compound in the plasma and brain tissue samples was quantified by liquid chromatography-tandem mass spectrometry (LC-MS/MS).

[3] = system: Middle cerebral artery occlusion (MCAO) models of SD rats; assay: Rat cerebral stroke model (MCAO), 28 days, pathological examination of brain; format: in vivo
Procedure: Middle cerebral artery occlusion (MCAO) models of SD rata were constructed by using the suture occlusion method. The rats were administered with the test compound for 28 consecutive days. The pharmacodynamic evaluation on the test compound for cerebral stroke was obtained based on general observation and neurobehavioral assessment. After anesthesia induction with 3.0% isoflurane in SD rats (240-280 g), the operation was performed and the right common carotid artery (CCA), and the right-side neck area was dissected to reveal the right common carotid artery (CCA), external carotid artery (ECA) and internal carotid artery (ICA). The ECA was ligated. The ICA was temporarily occluded. Sutures were threaded at both the proximal end and the distal end of CCA. The distal end was securely ligated, and a loosely tied knot was placed at the proximal end. A small incision was made on the CCA between these two sutures. A No. 4-0 suture was inserted through the incision of CCA and slowly and gently pushed into the ICA. The threading was stopped temporarily when reaching the artery clamp of ICA. The pre-ligation suture was further tightened. The artery clamp blocking the blood flow in the ICA was removed, allowing the suture occlusion to be advanced into the ICA until it entered the intracranial region. […] The insertion was stopped at the moment, and the time was recorded. The artery clamp on the CCA was removed and the incision was closed after no active bleeding was observed. The ischemic rats were placed at room temperature to keep their body temperature at 37° C., and anesthesia induction could be carried out 120 min later. The suture was slowly and gradually withdrawn when the rats were maintained under anesthesia, so that the proximal end of the suture returned to the ECA, thereby initiating reperfusion of the middle cerebral artery. Animals received the designated dosage immediately (within 10 min) after reperfusion. This dosing regimen continued once daily for a duration of 28 days, with the day of operation being defined as D1 (Day 1). A total of 5 groups were set, sham surgery group, model control group, NBP group (60 mg/kg, p.o., q.d), compound (I) low dose p.o. group (6 mg/kg, p.o., q.d), and a compound (I) high dose p.o. group (20 mg/kg, p.o., q.d). During administration, all animals were subjected to grid walking tests (D7, D14, D21, and D28, 4 times in total) and novel object recognition tests (adaptation for novel object recognition on D26, test on D27). After the completion of the 28-day dosing period, all surviving animals in the study were euthanized, and their brains were rapidly collected for pathological analysis. (3) Pathological examination: 1) the restoration range: samples with a restoration area range of >30% are considered to be good in recovery, while samples with a restoration area range of ≤30% are considered to be poor in recovery. […] In addition, for the compound (I) low dose group and the compound (I) high dose group, the proportion values of animal samples having >10 erythrocyte-containing blood vessels in the restoration area were 100% and 92.3%, respectively, both being no less than 90%.

[4] = Pharmacokinetics of 3-n-butylphthalide in rat plasma (value in literature); format: in vivo; settings: rats, p.o. 60 mg/kg vs i.v. 10 mg/kg; calculated based on the literature value of AUC0-inf
[5] = system: Middle cerebral artery occlusion (MCAO) models of SD rats; assay: Rat cerebral stroke model (MCAO), 28 days, grid walking test; format: in vivo; settings: 60 mg/kg p.o. q.d, Mean ± SD
Procedure: (§1) Middle cerebral artery occlusion (MCAO) models of SD rata were constructed by using the suture occlusion method. The rats were administered with the test compound for 28 consecutive days. The pharmacodynamic evaluation on the test compound for cerebral stroke was obtained based on general observation and neurobehavioral assessment.
(§2) After anesthesia induction with 3.0% isoflurane in SD rats (240-280 g), the operation was performed and the right common carotid artery (CCA), and the right-side neck area was dissected to reveal the right common carotid artery (CCA), external carotid artery (ECA) and internal carotid artery (ICA). The ECA was ligated. The ICA was temporarily occluded. Sutures were threaded at both the proximal end and the distal end of CCA. The distal end was securely ligated, and a loosely tied knot was placed at the proximal end. A small incision was made on the CCA between these two sutures. A No. 4-0 suture was inserted through the incision of CCA and slowly and gently pushed into the ICA. The threading was stopped temporarily when reaching the artery clamp of ICA. The pre-ligation suture was further tightened. The artery clamp blocking the blood flow in the ICA was removed, allowing the suture occlusion to be advanced into the ICA until it entered the intracranial region. […] The insertion was stopped at the moment, and the time was recorded. The artery clamp on the CCA was removed and the incision was closed after no active bleeding was observed. The ischemic rats were placed at room temperature to keep their body temperature at 37° C., and anesthesia induction could be carried out 120 min later. The suture was slowly and gradually withdrawn when the rats were maintained under anesthesia, so that the proximal end of the suture returned to the ECA, thereby initiating reperfusion of the middle cerebral artery. Animals received the designated dosage immediately (within 10 min) after reperfusion. This dosing regimen continued once daily for a duration of 28 days, with the day of operation being defined as D1 (Day 1). A total of 5 groups were set, sham surgery group, model control group, NBP group (60 mg/kg, p.o., q.d), compound (I) low dose p.o. group (6 mg/kg, p.o., q.d), and a compound (I) high dose p.o. group (20 mg/kg, p.o., q.d). During administration, all animals were subjected to grid walking tests (D7, D14, D21, and D28, 4 times in total) and novel object recognition tests (adaptation for novel object recognition on D26, test on D27). After the completion of the 28-day dosing period, all surviving animals in the study were euthanized, and their brains were rapidly collected for pathological analysis.

[6] = system: Middle cerebral artery occlusion (MCAO) models of SD rats; assay: Rat cerebral stroke model (MCAO), 28 days, novel object recognition test; format: in vivo; settings: 60 mg/kg p.o. q.d, Mean ± SD
Procedure: as §1, §2

[7] = rats, value in literature, cited from earlier work
[8] = brain, read-out: Measured value in brain tissues Concentration
[9] = plasma, read-out: Measured value in plasma Concentration

For `CCC/C(O)=C1/C(=O)Oc2ccccc21` [Compound (I), (Z)-3-(1-hydroxybutylidene)benzofuran-2 (3H)-one], the F ([1]; p.o. 10 mg/kg vs i.v. 1 mg/kg) was 144.2%, the AUC0-inf ([1]; rat, iv, i.v. 1 mg/kg, plasma) was 59200 ng·h/mL and the AUC0-t ([1]; rat, iv, i.v. 1 mg/kg, plasma) was 52500 ng·h/mL. It also gave an MRT inf ([1]; rat, iv, i.v. 1 mg/kg, plasma) of 9.8 h, a half-life ([1]; rat, iv, i.v. 1 mg/kg, plasma) of 7.5 h and an AUC0-inf ([1]; rat, po, p.o. 10 mg/kg, plasma) of 854000 ng·h/mL. For the same compound, the AUC0-t ([1]; rat, po, p.o. 10 mg/kg, plasma) was 703000 ng·h/mL, the Cmax ([1]; rat, po, p.o. 10 mg/kg, plasma) was 56500 ng/mL and the MRT inf ([1]; rat, po, p.o. 10 mg/kg, plasma) was 13.2 h. It also gave a Tmax ([1]; rat, po, p.o. 10 mg/kg, plasma) of 0.5 h, a half-life ([1]; rat, po, p.o. 10 mg/kg, plasma) of 9.6 h and a concentration at 0.5 h [2, 8] of 8730 ng/g. For the same compound, the concentration at 1 h [2, 8] was 5730 ng/g, the concentration at 4 h [2, 8] was 5030 ng/g and the concentration at 24 h [2, 8] was 285 ng/g. For the same compound, the concentration at 0.5 h [2, 9] was 241000 ng/mL, the concentration at 1 h [2, 9] was 192000 ng/mL and the concentration at 4 h [2, 9] was 182000 ng/mL. For the same compound, the concentration at 24 h [2, 9] was 23500 ng/mL, the “Number of animals with >10 erythrocyte-containing blood vessels” value ([3]; high dose 20 mg/kg p.o. q.d 28 days, N = 13, infarction restoration area, 20 mg/kg) was 12** and the “Number of animals with >10 erythrocyte-containing blood vessels” value ([3]; high dose 20 mg/kg p.o. q.d 28 days, N = 13, infarction restoration area, listed as compound (I), 20 mg/kg) was 12. For the same compound, the “Number of animals with >10 erythrocyte-containing blood vessels” value ([3]; low dose 6 mg/kg p.o. q.d 28 days, N = 12, infarction restoration area, 6 mg/kg) was 12** and the “Number of animals with >10 erythrocyte-containing blood vessels” value ([3]; low dose 6 mg/kg p.o. q.d 28 days, N = 12, infarction restoration area, listed as compound (I), 6 mg/kg) was 12.

For `CCCCC1OC(=O)c2ccccc21` (stereo not drawn) [NBP, 3-n-butylphthalide], the F [4] was 16.6* %, the concentration at 0.5 h [2, 8] was 28.5 ng/g and the concentration at 1 h [2, 8] was 22.8 ng/g. The concentration at 4 h [2, 8] was 10.2 ng/g, the concentration at 0.5 h [2, 9] was 26 ng/mL and the concentration at 1 h [2, 9] was 19.1 ng/mL. The concentration at 4 h [2, 9] was 7.2 ng/mL, the concentration at 24 h [2, 9] was 1.7 ng/mL and the Misstep frequency ([5]; 1 W after operation, model control 7.24 ± 3.59) was 7.37±3.03 times. For the same compound, the Misstep frequency ([5]; 2 W after operation, model control 5.35 ± 4.40) was 8.10 ± 2.97 times, the Misstep frequency ([5]; 3 W after operation, model control 4.09 ± 3.140) was 6.27 ± 2.890 times and the Misstep frequency ([5]; 4 W after operation, model control 1.59 ± 0.84) was 2.10 ± 1.46 times. For the same compound, the “Sniffing time Familiar object” value ([6]; model control 2.70 ± 2.22) was 1.60 ± 1.01 S, the “Sniffing time Novel object” value ([6]; model control 3.82 ± 3.40) was 4.94 ± 3.60 S and the “Recognition index Familiar object (FRI)” value ([6]; model control 45.19 ± 21.94) was 29.03 ± 22.57%. For the same compound, the “Recognition index Novel object (NRI)” value ([6]; model control 54.81 ± 21.94) was 70.97±22.57%, the “Number of samples Restoration area > 30%” value ([3]; 60 mg/kg p.o. q.d 28 days, N = 14, model control 3 of 17) was 3 and the “Number of samples Restoration area ≤ 30%” value ([3]; 60 mg/kg p.o. q.d 28 days, N = 14, model control 14 of 17) was 11. For the same compound, the “Number of animals with ≤10 erythrocyte-containing blood vessels” value ([3]; 60 mg/kg p.o. q.d 28 days, N = 15, infarction restoration area, model control 10 of 17) was 1, the “Proportion of samples having >10 erythrocyte-containing blood vessels” value ([3]; 60 mg/kg p.o. q.d 28 days, model control 41.2) was 93.3% and the “Proportion of samples showing good recovery” value ([3]; 60 mg/kg p.o. q.d 28 days, restoration area >30%, model control 17.6) was 21.4%. The AUC0-inf ([7]; i.v. 10 mg/kg) was 8620.0 ng·h/mL, the AUC0-t ([7]; i.v. 10 mg/kg) was 7230.0 ng·h/mL and the MRTinf ([7]; i.v. 10 mg/kg) was 2.4 h. For the same compound, the T1/2 ([7]; i.v. 10 mg/kg) was 2.2 h, the AUC0-inf ([7]; p.o. 60 mg/kg) was 8560.0 ng·h/mL and the AUC0-t ([7]; p.o. 60 mg/kg) was 7110.0 ng·h/mL. The Cmax ([7]; p.o. 60 mg/kg) was 2900.0 ng/mL, the MRTinf ([7]; p.o. 60 mg/kg) was 3.8 h and the T1/2 ([7]; p.o. 60 mg/kg) was 2.83 h. The Tmax ([7]; p.o. 60 mg/kg) was 0.7 h.
